Data on ten compounds can be found in ChEMBL document CHEMBL1201862, “PubChem BioAssay data set” (2004).

Common to all, as to assay: NCI anticancer screen, dose series, 48 h
Test [1] concerns NCI-H226.
The test system of test [2] is OVCAR-5.
Test [3] has as its system NCI-H23.
Test [4] deals with HCC 2998.
For test [5], the system named is SR.
The subject of test [6] is MDA-MB-231.
Test [7] has as its system HCT-15.
The subject of test [8] is NCI-H522.
Test [9] has as its system K562.
Test [10] has as its system IGROV-1.
For test [11], the system named is OVCAR-3.
Test [12] deals with UACC-62.
Test [13] has as its system 786-0.
The test system of test [14] is A498.
Test [15] deals with SNB-75.
Test [16] deals with U-251.
For test [17], the system named is OVCAR-8.
In test [18] the test system is CAKI-1.
Test [19] has as its system SF-539.
Test [20] deals with MOLT-4.

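Tested at 5 concentrations; 48 h exposure; 96-well plates; endpoints linearly interpolated, else capped at highest concentration. GI50: concentration for 50% inhibition of growth.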 Calls of active or inactive are those of the source. Cut-off read from the data, not from the text of the source: active = GI50 up to about 1.1 µM and inactive = higher. A value given as a limit tells only on which side of the number the result lay.

Turning to `CC(=O)Oc1ccc2c(C)cc(=O)oc2c1`, the GI50 in test [1], in test [2], in test [3], in [4], in test [5] and in test [6] was > 100 µM (inactive) each time. Besides, the GI50 is greater than 100 µM in test [7]; > 100 µM (inactive) in test [8]; > 100 µM (inactive) in test [9]; > 100 µM (inactive) in [10]; > 100 µM (inactive) in test [11]; > 100 µM (inactive) in [12]. The GI50 in test [13], in test [14], in [15], in test [16], in test [17] and in test [18] was > 100 µM (inactive) in each case. Further, the GI50 in test [19] and in [20] was > 100 µM (inactive) each time.

For the compound `CN(C)c1ccc(/C=N/Nc2nc3ccccc3c(=O)n2-c2ccccc2)cc1`, the GI50 in test [1] is > 100 µM (inactive); in test [2], > 100 µM (inactive); in test [3], > 100 µM (inactive); in [4], > 100 µM (inactive); in test [5], > 100 µM (inactive); in [6], 63 µM (inactive). Besides, the GI50 is greater than 100 µM in test [7]; 44.5 µM (inactive) in [8]; > 100 µM (inactive) in test [9]; > 100 µM (inactive) in [10]; 27 µM (inactive) in [11]; 28.6 µM (inactive) in test [12]. Besides, the GI50 in [13] was 23.7 µM (inactive); in test [14], 63.2 µM (inactive); in [15], 5.75 µM (inactive); in test [16] it was 34 µM (inactive); in test [17] it was 46.9 µM (inactive); in [18], > 100 µM (inactive). For the same compound, the GI50 in test [19] is 30.4 µM (inactive); in test [20], > 100 µM (inactive).

Turning to `COc1cccc(/N=N/C(=N/NC(=O)c2cc(Cl)ccc2O)c2ccc(N(CCC#N)CCC#N)cc2C)c1`, the GI50 was 26.2 µM (inactive) in [1]; > 100 µM (inactive) in test [2]; 35 µM (inactive) in test [3]; 23.6 µM (inactive) in test [4]; 21.2 µM (inactive) in [5]; 35.1 µM (inactive) in test [6]. For the same compound, the GI50 in test [7] is 33.3 µM; in test [8], 9.1 µM (inactive); in test [9], 21.3 µM (inactive); in test [10], 23.3 µM (inactive); in [11], 2.06 µM (inactive); in test [12] it was 44.6 µM (inactive). The GI50 was 43.3 µM (inactive) in test [13]; 26.4 µM (inactive) in test [14]; 21.4 µM (inactive) in test [15]; 38.3 µM (inactive) in test [16]; 16.9 µM (inactive) in test [17]; 48.3 µM (inactive) in [18]. The GI50 in [19] was 18.4 µM (inactive); in [20] it was 19.1 µM (inactive).

As for `O=C1C(Br)=Cc2c(Cl)sc(Cl)c21`, the GI50 in [1] is > 100 µM (inactive); in test [2] it was 13.3 µM (inactive); in [3] it was 8.85 µM (inactive); in [4], 2.37 µM (inactive); in test [5], 2.15 µM (inactive); in test [6], 3.13 µM (inactive). Moreover, the GI50 was 3.69 µM in test [7]; 5.16 µM (inactive) in test [8]; 1.07 µM (active) in test [9]; 2.59 µM (inactive) in [10]; 2.67 µM (inactive) in test [11]; 7.91 µM (inactive) in test [12]. Moreover, the GI50 in [13] was 1.77 µM (inactive); in test [14] it was 23.9 µM (inactive); in test [15], 13.3 µM (inactive); in test [16], 2.59 µM (inactive); in test [17] it was 3.24 µM (inactive); in test [18] it was 3.05 µM (inactive). In addition, the figures for the GI50 in [19] and in [20] were 4.24 µM (inactive) and 0.515 µM (active), respectively.

On to `CN(/N=C/c1ccccn1)C1=NCCCCN1`, for which the GI50 in test [1], in test [2], in test [3], in [4], in [5] and in test [6] was > 100 µM (inactive) in each case. For the same compound, the GI50 is greater than 100 µM in test [7]; > 100 µM (inactive) in [8]; > 100 µM (inactive) in [9]; > 100 µM (inactive) in [10]; > 100 µM (inactive) in test [11]; > 100 µM (inactive) in test [12]. Besides, the GI50 in test [13], in test [14], in [15], in [16], in [17] and in test [18] was > 100 µM (inactive) in each case. The GI50 in test [19] and in test [20] was > 100 µM (inactive) throughout.

For the compound `NC(=O)SCCC(N)C(=O)O` (stereo not drawn), the GI50 in test [1], in test [2], in [3], in test [4], in test [5] and in [6] was > 100 µM (inactive) throughout. Further, the GI50 in [7] was greater than 100 µM; in test [8], > 100 µM (inactive); in test [9], > 100 µM (inactive); in [10], > 100 µM (inactive); in [11], > 100 µM (inactive); in [12] it was > 100 µM (inactive). The GI50 in [13], in [14], in test [15], in test [16], in test [17] and in test [18] was > 100 µM (inactive) each time. Besides, the GI50 in test [19] and in [20] was > 100 µM (inactive) each time.

Turning to `CCOC(=O)CCC(NC(=O)c1ccc(Nc2cnc3ccc(C(F)(F)F)cc3n2)cc1)C(=O)OCC` (stereo not drawn), the GI50 is 28.1 µM (inactive) in test [1]; > 100 µM (inactive) in test [2]; 35 µM (inactive) in test [3]; 81.1 µM (inactive) in test [4]; > 100 µM (inactive) in [5]; 4.59 µM (inactive) in [6]. For the same compound, the GI50 is greater than 100 µM in [7]; 65.6 µM (inactive) in test [8]; > 100 µM (inactive) in test [9]; 10.9 µM (inactive) in [10]; > 100 µM (inactive) in [11]; 20.6 µM (inactive) in test [12]. Also, the GI50 in test [13] is 10.5 µM (inactive); in test [14], 26.4 µM (inactive); in test [15], 8.24 µM (inactive); in test [16] it was 11.6 µM (inactive); in test [17], 8.81 µM (inactive); in [18], 12 µM (inactive). The GI50 in test [19] was 13.3 µM (inactive); in test [20] it was 2.2 µM (inactive).

On to `O=C(CC1(O)C(=O)Nc2c(Cl)cc(Cl)cc21)c1cccc([N+](=O)[O-])c1` (stereo not drawn), for which the GI50 is 31.6 µM (inactive) in [1]; 55.7 µM (inactive) in test [2]; 19.4 µM (inactive) in [3]; > 45.2 µM (inactive) in test [4]; 51.9 µM (inactive) in [5]; 29.9 µM (inactive) in [6]. Further, the GI50 is 48.5 µM in test [7]; 67 µM (inactive) in test [8]; 19.8 µM (inactive) in test [9]; 18.2 µM (inactive) in test [10]; 25 µM (inactive) in [11]; 18.8 µM (inactive) in [12]. For the same compound, the GI50 in test [13] was 22.2 µM (inactive); in test [14] it was 27.9 µM (inactive); in [15] it was 15.2 µM (inactive); in test [16], 27.7 µM (inactive); in test [17], 29.9 µM (inactive); in test [18], 32.6 µM (inactive). Moreover, the GI50 in [19] is 27.9 µM (inactive); in test [20], 19.8 µM (inactive).

In the case of `O=C(Nc1ccccc1)N1CCNC1=S`, the GI50 was 87.5 µM (inactive) in test [1]; > 100 µM (inactive) in [2]; > 100 µM (inactive) in test [3]; 15.5 µM (inactive) in test [4]; 69.2 µM (inactive) in test [5]; > 100 µM (inactive) in test [6]. Moreover, the GI50 in [7] was greater than 100 µM; in [8] it was > 100 µM (inactive); in test [9] it was > 100 µM (inactive); in test [10], > 100 µM (inactive); in [11], > 100 µM (inactive); in [12], > 100 µM (inactive). In addition, the GI50 in test [13] was > 100 µM (inactive); in [14], > 100 µM (inactive); in test [15], 28.4 µM (inactive); in test [16], > 100 µM (inactive); in [17], > 100 µM (inactive); in test [18], > 100 µM (inactive). Besides, the GI50 in test [19] and in test [20] was > 100 µM (inactive) throughout.

As for `CCCCCCCCCCCCCC[C@@H](O)[C@H]1CC[C@H]([C@H]2CC[C@H]([C@H](O)CCCCCC[C@@H](O)CC3=C[C@H](C)OC3=O)O2)O1`, the GI50 is > 25 µM (inactive) in [1]; > 25 µM (inactive) in test [2]; 1.2 µM (inactive) in [3]; > 25 µM (inactive) in test [4]; 1.03 µM (active) in test [5]; > 25 µM (inactive) in test [6]. Besides, the GI50 was greater than 25 µM in test [7]; 8.93 µM (inactive) in [8]; > 25 µM (inactive) in test [10]; > 25 µM (inactive) in test [11]; 1.54 µM (inactive) in [12]; > 25 µM (inactive) in [13]. The GI50 in [14] was > 12.5 µM (inactive); in test [15], > 25 µM (inactive); in test [16], > 25 µM (inactive); in [17] it was 1.75 µM (inactive); in test [18] it was > 25 µM (inactive); in test [19] it was > 13.8 µM (inactive).
